Source: US20200128830A1, “FUSED BICYCLIC HETEROCYCLE DERIVATIVES AS PESTICIDES” (Bayer Aktiengesellschaft, priority 2017, published 2020)

Assays:
Assay type in all cases: in vivo
Ctenocephalides felis [1] = assay: Ctenocephalides felis in vitro contact test with adult cat fleas; conditions: application rate 5 μg/cm^2 (=500 g of ai/ha); adult cat fleas in coated glass tube; after 48 h; dead or moribund
Description: Ctenocephalides felis—In Vitro Contact Tests with Adult Cat Fleas For the coating of the test tubes, 9 mg of active compound are first dissolved in 1 ml of acetone p.a. and then diluted to the desired concentration with acetone p.a. 250 μl of the solution are distributed homogeneously on the inner walls and the base of a 25 ml glass tube by turning and rocking on an orbital shaker (rocking rotation at 30 rpm for 2 h). With 900 ppm of active compound solution and internal surface area 44.7 cm^2, given homogeneous distribution, an area-based dose of 5 μg/cm^2 is achieved. After the solvent has evaporated off, the tubes are populated with 5-10 adult cat fleas (Ctenocephalides felis), sealed with a perforated plastic lid and incubated in a horizontal position at room temperature and ambient humidity. After 48 h, efficacy is determined. To this end, the tubes are stood upright and the fleas are knocked to the base of the tube. Fleas which remain motionless at the base or move in an uncoordinated manner are considered to be dead or moribund. […] 100% efficacy means that all the fleas were dead or moribund. 0% efficacy means that no fleas were harmed.

Myzus persicae = Myzus persicae oral test; conditions: 120 h, application rate 4 ppm, mixed population of green peach aphids, after 5 days, read-out: efficacy
Description: Myzus persicae—Oral Test [table] To produce a suitable active compound formulation, 1 part by weight of active compound is dissolved with the stated parts by weight of solvent and made up to the desired concentration with water. 50 μl of the active compound formulation are transferred into microtitre plates and made up to a final volume of 200 μl with 150 μl of IPL41 insect medium (33%+15% sugar). Subsequently, the plates are sealed with parafilm, which a mixed population of green peach aphids (Myzus persicae) within a second microtitre plate is able to puncture and imbibe the solution. After 5 days, the efficacy in % is determined. 100% means that all the aphids have been killed; 0% means that no aphids have been killed.

Spodoptera frugiperda = Spodoptera frugiperda spray test; conditions: foliar, 168 h, application rate 100 g/ha, caterpillars on maize leaf discs, after 7 days, read-out: efficacy
Description: Spodoptera frugiperda—Spray Test [table] To produce a suitable active compound formulation, 1 part by weight of active compound is dissolved with the specified parts by weight of solvent and made up to the desired concentration with water containing an emulsifier concentration of 1000 ppm. To produce further test concentrations, the formulation is diluted with emulsifier-containing water. Leaf discs of maize (Zea mays) are sprayed with an active compound formulation of the desired concentration and, after drying, populated with caterpillars of the fall armyworm (Spodoptera frugiperda). After 7 days, the efficacy in % is determined. 100% means that all the caterpillars have been killed; 0% means that no caterpillar has been killed.

Lucilia cuprina = Lucilia cuprina test; conditions: application rate 100 ppm; L1 larvae on minced horsemeat; after 2 days
Description: Lucilia cuprina Test Solvent: Dimethyl Sulfoxide To produce a suitable active compound formulation, 10 mg of active compound are mixed with 0.5 ml of dimethyl sulfoxide, and the concentrate is diluted with water to the desired concentration. About 20 L1 larvae of the Australian sheep blowfly (Lucilia cuprina) are transferred into a test vessel containing minced horsemeat and the active compound preparation of the desired concentration. After 2 days, the kill in % is determined. 100% means that all the larvae have been killed; 0% means that no larvae have been killed.

Ctenocephalides felis [2] = assay: Ctenocephalides felis oral test; conditions: application rate 100 ppm in citrated cattle blood; unfed adult cat fleas; after 2 days
Description: Ctenocephalides felis—Oral Test Solvent: Dimethyl Sulfoxide To produce a suitable active compound formulation, 10 mg of active compound are mixed with 0.5 ml of dimethyl sulfoxide. Dilution with citrated cattle blood gives the desired concentration. About 20 unfed adult cat fleas (Ctenocephalides felis) are placed into a chamber which is closed at the top and bottom with gauze. A metal cylinder whose bottom end is closed with parafilm is placed onto the chamber. The cylinder contains the blood/active compound formulation, which can be imbibed by the fleas through the parafilm membrane. After 2 days, the kill in % is determined. 100% means that all of the fleas have been killed; 0% means that none of the fleas have been killed.

Musca domestica = Musca domestica test; conditions: application rate 100 ppm; adult houseflies, sponge with sugar solution; after 2 days
Description: Musca domestica Test Solvent: Dimethyl Sulfoxide To produce a suitable active compound formulation, 10 mg of active compound are mixed with 0.5 ml of dimethyl sulfoxide, and the concentrate is diluted with water to the desired concentration. Vessels containing a sponge treated with sugar solution and the desired concentration of active compound formulation are populated with 10 adult houseflies (Musca domestica). After 2 days, the kill in % is determined. 100% means that all of the flies have been killed; 0% means that none of the flies have been killed.

Phaedon cochleariae = Phaedon cochleariae spray test; conditions: foliar, 168 h, application rate 100 g/ha, larvae on Chinese cabbage leaf discs, after 7 days, read-out: efficacy
Description: Phaedon cochleariae—Spray Test
To produce a suitable active compound formulation, 1 part by weight of active compound is dissolved with the specified parts by weight of solvent and made up to the desired concentration with water containing an emulsifier concentration of 1000 ppm. To produce further test concentrations, the formulation is diluted with emulsifier-containing water.
Discs of Chinese cabbage leaves (Brassica pekinensis) are sprayed with an active compound formulation of the desired concentration and, after drying, populated with larvae of the mustard beetle (Phaedon cochleariae).
After 7 days, the efficacy in % is determined. 100% means that all the beetle larvae have been killed; 0% means that no beetle larvae have been killed.

Q: How did the efficacy (Ctenocephalides felis [1]) turn out when CCS(=O)(=O)c1c(-c2nc3cc(C(F)(F)F)ncc3n2C)sc2nc(C(F)(F)F)sc12 [I-10] was run?
A: 100%

Q: What about the pest or weed control at 4 ppm (Myzus persicae) of the same compound?
A: 90%

Q: And the pest or weed control at 100 g/ha (Spodoptera frugiperda)?
A: 100%

Q: What about the “efficacy (kill in %)” value (Lucilia cuprina) of the same compound?
A: 100%

Q: What about the “efficacy (kill in %)” value (Ctenocephalides felis [2]) of the same compound?
A: 80%

Q: What about the “efficacy (kill in %)” value (Musca domestica) of the same compound?
A: 80%

Q: And the pest or weed control at 100 g/ha (Phaedon cochleariae)?
A: 100%
